Data published in the supplement of paper PMC10307832.

What was measured:
Assay in all cases: relative viability (nuclei count vs DMSO), 5 days (fraction); higher = more cells survive
Palbociclib + Phenformin = compound: CC(=O)c1c(C)c2cnc(Nc3ccc(N4CCNCC4)cn3)nc2n(C2CCCC2)c1=O [Palbociclib] + N=C(N)NC(=N)NCCc1ccccc1 [Phenformin] (partner 250 µM)
Procedure, shortened: (§1)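 Values are medians from duplicate plates. Each reflects relative viability, defined as the nuclei count of treated wells over that of vehicle wells. Lung cancer cell lines in 1536-well plates were pin-tool dosed one day after seeding with one drug alone or with a fixed anchor-drug dose plus five library-drug doses (not always all listed) in √10 steps, then fixed, stained and imaged at 4× after 5 days.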

Palbociclib + AZD7762 = compound: CC(=O)c1c(C)c2cnc(Nc3ccc(N4CCNCC4)cn3)nc2n(C2CCCC2)c1=O [Palbociclib] + NC(=O)Nc1cc(-c2cccc(F)c2)sc1C(=O)N[C@H]1CCCNC1 [AZD7762] (partner 0.2 µM)
Procedure, shortened: as §1

Palbociclib + Pemetrexed = compound: CC(=O)c1c(C)c2cnc(Nc3ccc(N4CCNCC4)cn3)nc2n(C2CCCC2)c1=O [Palbociclib] + Nc1nc2[nH]cc(CCc3ccc(C(=O)N[C@@H](CCC(=O)O)C(=O)O)cc3)c2c(=O)[nH]1 [Pemetrexed] (partner 0.2 µM)
Procedure, shortened: as §1

Palbociclib + Decitabine = compound: CC(=O)c1c(C)c2cnc(Nc3ccc(N4CCNCC4)cn3)nc2n(C2CCCC2)c1=O [Palbociclib] + Nc1ncn([C@H]2C[C@H](O)[C@@H](CO)O2)c(=O)n1 [Decitabine] (partner 2 µM)
Procedure, shortened: as §1

Row | Cell Line | relative viability (Palbociclib + Phenformin; first compound 0.01 µM) | relative viability (Palbociclib + Phenformin; first compound 0.1 µM) | relative viability (Palbociclib + Phenformin; first compound 0.3162 µM) | relative viability (Palbociclib + Phenformin; first compound 1 µM) | relative viability (Palbociclib + AZD7762; first compound 0.01 µM) | relative viability (Palbociclib + AZD7762; first compound 0.03162 µM) | relative viability (Palbociclib + AZD7762; first compound 0.1 µM) | relative viability (Palbociclib + AZD7762; first compound 0.3162 µM) | relative viability (Palbociclib + AZD7762; first compound 1 µM) | relative viability (Palbociclib + Pemetrexed; first compound 0.01 µM) | relative viability (Palbociclib + Pemetrexed; first compound 0.03162 µM) | relative viability (Palbociclib + Pemetrexed; first compound 0.1 µM) | relative viability (Palbociclib + Pemetrexed; first compound 0.3162 µM) | relative viability (Palbociclib + Pemetrexed; first compound 1 µM) | relative viability (Palbociclib + Decitabine; first compound 0.01 µM) | relative viability (Palbociclib + Decitabine; first compound 0.03162 µM) | relative viability (Palbociclib + Decitabine; first compound 0.1 µM) | relative viability (Palbociclib + Decitabine; first compound 0.3162 µM) | relative viability (Palbociclib + Decitabine; first compound 1 µM) | relative viability (Palbociclib + Phenformin; first compound 0.03162 µM)
1 | NCI-H596 | 0.982 | 0.757 | 0.712 | 0.673 | 1.15 | 0.96 | 1.1 | 1.01 | 1.09 | 0.514 | 0.617 | 0.514 | 0.52 | 0.497 | 1.15 | 0.973 | 1.05 | 0.945 | 1.22 | –
2 | NCI-H1975 | 0.388 | 0.325 | 0.273 | 0.3 | 0.715 | 0.772 | 0.609 | 0.659 | 0.531 | 0.293 | 0.284 | 0.276 | 0.294 | 0.256 | 0.413 | 0.429 | 0.412 | 0.399 | 0.365 | 0.384
3 | EKVX | 0.23 | 0.238 | 0.245 | 0.145 | 0.7 | – | 0.673 | 0.558 | 0.38 | 0.392 | – | 0.353 | 0.317 | 0.243 | 0.383 | – | 0.281 | 0.307 | 0.293 | 0.192
4 | NCI-H460 | 0.537 | 0.409 | 0.333 | 0.149 | 0.591 | 0.512 | 0.557 | 0.484 | 0.178 | 0.0576 | 0.0539 | 0.0631 | 0.0663 | 0.057 | 0.432 | 0.415 | 0.503 | 0.46 | 0.264 | 0.411
5 | NCI-H23 | 0.795 | 0.704 | 0.781 | 0.506 | 0.304 | 0.324 | 0.268 | 0.248 | 0.217 | 0.596 | 0.694 | 0.492 | 0.67 | 0.443 | 0.28 | 0.341 | 0.283 | 0.362 | 0.33 | –
6 | NCI-H2009 | 0.457 | 0.357 | 0.291 | 0.23 | – | – | – | – | – | 1.04 | 0.925 | 0.913 | 0.72 | 0.408 | 0.375 | 0.347 | 0.358 | 0.365 | 0.274 | 0.396
7 | NCI-H2405 | 0.387 | 0.327 | 0.36 | 0.317 | 0.666 | 0.78 | 0.726 | 0.62 | 0.383 | 1.06 | 1.14 | 0.941 | 0.799 | 0.523 | 0.781 | 0.808 | 0.691 | 0.64 | 0.605 | 0.344
8 | NCI-H1395 | 0.408 | 0.368 | 0.412 | 0.41 | 0.428 | 0.406 | 0.406 | 0.453 | 0.407 | 0.797 | 0.812 | 0.786 | 0.838 | 0.65 | 0.741 | 0.704 | 0.656 | 0.702 | 0.641 | 0.408
9 | HOP-62 | 0.642 | 0.644 | 0.502 | 0.47 | 0.334 | – | 0.389 | 0.501 | 0.355 | 0.281 | – | 0.306 | 0.252 | 0.269 | 0.179 | – | 0.237 | 0.207 | 0.257 | –
10 | NCI-H522 | 0.623 | 0.586 | 0.644 | 1.19 | 1.01 | 0.453 | 0.934 | 0.843 | 0.814 | 1.2 | 0.504 | 0.99 | 1.02 | 0.932 | 0.749 | 0.646 | 0.635 | 0.736 | 0.709 | 0.592
11 | NCI-H1944 | 0.206 | 0.182 | 0.174 | 0.165 | 0.557 | 0.44 | 0.504 | 0.428 | 0.375 | 0.598 | 0.57 | 0.589 | 0.477 | 0.367 | 0.45 | 0.426 | 0.447 | 0.438 | 0.431 | 0.172
12 | NCI-H1793 | 0.28 | 0.336 | 0.309 | 0.173 | 0.518 | 0.393 | 0.549 | 0.528 | 0.277 | 0.975 | 0.653 | 0.676 | 0.617 | 0.339 | 0.559 | 0.613 | 0.611 | 0.46 | 0.342 | –
13 | SK-MES-1 | 0.661 | 0.455 | 0.376 | 0.18 | – | – | – | – | – | 0.857 | 0.802 | 0.665 | 0.596 | 0.363 | 0.354 | 0.377 | 0.404 | 0.357 | 0.263 | 0.573
14 | NCI-H1650 | 0.45 | 0.289 | 0.348 | 0.233 | – | – | – | – | – | 0.373 | 0.316 | 0.302 | 0.293 | 0.231 | 0.414 | 0.427 | 0.474 | 0.421 | 0.349 | 0.251
